Assays:
Type in all cases: cell-based
U2OS cells = assay: IncuCyte cell proliferation assay
Experimental: Figure 4 Further cell-based assays with CU1 and CU2: (a, b) Representative immunofluorescence images of U2OS cells treated with HU (2.5 mM, 8 h) or cisplatin (10 μM, 8 h) in the presence or absence of CU1 (200 μM) or CU2 (500 μM). (c) Quantification of the number of FANCD2 foci in cells treated as in panels (a) and (b). Data accumulated over three independent experiments, each consisting of three technical replicas. (d) IncuCyte analysis of U2OS cells treated with or without carboplatin (15 μM) and CU2 (250 μM). Mean calculated from three wells, four images per well. (HU = DMSO + HU, cisplatin = DMSO + cisplatin).
Finally, to investigate if CU1 and CU2 could sensitize cells to a more clinically relevant chemotherapeutic agent, quantitative live cell analyses were performed using the IncuCyte platform. As the FA pathway is involved in the repair of ICLs, cells were treated with the ICL-inducing chemotherapeutic drug, carboplatin. For this experiment, U2OS cells were seeded at a relatively low (<10%) density and preincubated with CU1 or CU2 for 1 h. Carboplatin was then added to the cells and images were taken every 6 h for 8 days in order to monitor growth and proliferation of the cells.
Reaction mixtures were incubated for the indicated time at 37 °C and stopped by the addition of 2X reducing SDS -PAGE sample buffer, separated on NuPAGE Novex 4 –12% Bis/Tris gradient gels (Invitrogen) and visualized by Western blotting using the indicated antibodies (Table S3).
Cell culture. U2OS cells were cultured at 37 °C in a humidified atmosphere and 5% (v/v) CO2 in Dulbecco's Modified Eagle Medium (DMEM; Sigma-Aldrich) supplemented with 10% (v/v) fetal bovine serum (FBS), 100 units/ml of penicillin, […] of streptomycin and 292 μg/mL L-glutamine.
Cell extract preparation and immunoblotting. U2OS cells were lysed in buffer containing 50 mM Tris-HCl pH 7.5, 2% SDS, 10 mM NEM, cocktail protease inhibitor (Roche) and phosphatase inhibitor cocktail followed by sonication 100 µg of extracts were boiled for 5 mins at 95 °C in 5X loading buffer and loaded onto NuPAGE Novex 4–12% Bis/Tris gradient gels
(Invitrogen), or NuPAGE Novex 3-8% Tris/Acetate gradient gels (Invitrogen) for detection of mUb-FANCD2. After separation the gels were transferred to PVDF and the membranes were blocked with Tris-buffered saline containing 0.1% (v/v) Tween-20 (TBST) and 5% (v/v) bovine serum albumin (BSA) and incubated with the indicated primary and secondary antibodies. mUb-FANCD2 intensity was quantified using Image Studio (LI-COR).
IncuCyte cell proliferation assays. 2000 U2OS cells were seeded per well in 96-well plates and treated with compounds 24 hours afterwards. After 1 hour of compound treatment, 15 µM carboplatin (Sigma-Aldrich) was added and the cells were cultured in an incubator with an IncuCyte microscopy -platform (Essen BioScience). Phase -contrast images were acquired every 6 hours for 8 days until DMSO-carboplatin treated cells reached >80% confluence. Cell proliferation was monitored as the occupied area (% confluence) of cell images over time and calculated as percentage confluence over time. Cell confluency percentages were calculated using the integrated Cell Player software and results were analysed with Prism 6 (GraphPad Software).

[1] = Tolerance / cytotoxicity of compounds in U2OS cells; conditions: human, u2os cells, 8 h assay, read-out: concentration above which cytotoxic
Experimental: U2OS cells were treated with HU and the formation of mUb-FANCD2 in the presence of CU 1, CU2, and CU9 was evaluated relative to a DMSO control. Following a 1-h preincubation with the compounds, cells were treated with 2.5 mM of HU for 24 h. […] Accordingly, cells were treated with a higher concentration of compounds in further experiments.

[2] = tested on: mUb-H2A and total protein ubiquitylation; assay: Immunoblot of widespread cellular ubiquitylation (mUb-H2A, FK2 antibody); conditions: U2OS; CU1 200 μM or CU2 500 μM; with or without HU 2.5 mM, 8 h
Experimental: Figure 3 Cell-based assays with CU1 and CU2: (a) Western blot showing that the formation of mUb-FANCD2(*), in response to HU treatment (2.5 mM, 8 h), is impaired in U2OS cells in the presence of CU1 (200 μM) or CU2 (500 μM). Ratio = mUb-FANCD2/FANCD2 (normalized to DMSO control). mUb-FANCD2 was resolved on a separate gel. PARP1 was used as a loading control for each gel, as well as to assess apoptosis. (b) Quantification of the reduction in mUb-FANCD2, in response to HU treatment (2.5 mM, 8 h) in the presence of CU1 (200 μM) or CU2 (500 μM). Mean calculated from three independent experiments. […] TEXT PRINTED IN THE PICTURE: (d) DMSO: S-phase 42.7; G1 29.2; G2-M 27.8 | (d) HU: S-phase 0.24; G1 72.4; G2-M 22.9 | (d) CU1: S-phase 43.4; G1 26.8; G2-M 29.1 | (d) CU2: S-phase 39.7; G1 31.9; G2-M 28.2 DOUBTS OF THE COPYIST ABOUT THIS PICTURE: Panel d print is small, so these digits are best readings: DMSO G2-M 27.8 (8 or 6); CU1 G1 26.8 (6 or 8); CU2 S-phase 39.7 (9 or 8); CU2 G2-M 28.2 (8 or 6) / Panels a and c: the lane ratios printed under the western blots (a: 1.0, 0.64, 0.40; c: 1.0/0.65, 1.0/0.63, 1.0/0.53) were left out because they belong to blots and the picture prints no measure for them […]
To investigate if the compounds were affecting more widespread ubiquitylation events in the cell, the monoubiquitylation status of histone H2A was assessed (mUb-H2A; Figure 3a). […]

SMILES | combined effect with carboplatin on cell growth (U2OS cells; 50 μM CU1 with 15 μM carboplatin) | concentrations that strongly inhibit cell growth (U2OS cells; IncuCyte) [µM] | MCC at 8 h [1] [µM] | total protein ubiquitylation (FK2 antibody) [2] | confluency (U2OS cells; 250 μM CU2 combined with 15 μM carboplatin, after 8 days) [%] | effect on cell growth (U2OS cells; CU2 250 μM alone) | confluency (U2OS cells; CU2 250 μM alone, after 6 days) [%] | effect on cells upon longer cellular exposures (U2OS cells; CU2 500 μM, IncuCyte, up to 8 days)
NCCN1C(=O)CC[C@H]2CN(Cc3cccc(-c4ccco4)c3)CC[C@H]21 [CU1] | far less pronounced than that observed for CU2 | > 50 | > 300 | do not affect total protein ubiquitylation | – | – | – | –
CCN1CCN(c2cc(C)nc3nc(CN4CCCCC4C)nn23)CC1 (stereo not drawn) [CU2] | – | – | – | do not affect total protein ubiquitylation | < 50 | minimal effect on cell growth | 100 | cytotoxic/cytostatic
